Results on 26 compounds are retold here after patent US7410975B2, “Small molecule toll-like receptor (TLR) antagonists” (Coley Pharmaceutical Group, Inc., priority 2003, dated 2008).

For the assay, the target named is T1, human TLR9 (hTLR9) (Homo sapiens, UniProt Q9NR96).
T1 construct: expressed in transfected cells
T1 sequence (Q9NR96 26-1032): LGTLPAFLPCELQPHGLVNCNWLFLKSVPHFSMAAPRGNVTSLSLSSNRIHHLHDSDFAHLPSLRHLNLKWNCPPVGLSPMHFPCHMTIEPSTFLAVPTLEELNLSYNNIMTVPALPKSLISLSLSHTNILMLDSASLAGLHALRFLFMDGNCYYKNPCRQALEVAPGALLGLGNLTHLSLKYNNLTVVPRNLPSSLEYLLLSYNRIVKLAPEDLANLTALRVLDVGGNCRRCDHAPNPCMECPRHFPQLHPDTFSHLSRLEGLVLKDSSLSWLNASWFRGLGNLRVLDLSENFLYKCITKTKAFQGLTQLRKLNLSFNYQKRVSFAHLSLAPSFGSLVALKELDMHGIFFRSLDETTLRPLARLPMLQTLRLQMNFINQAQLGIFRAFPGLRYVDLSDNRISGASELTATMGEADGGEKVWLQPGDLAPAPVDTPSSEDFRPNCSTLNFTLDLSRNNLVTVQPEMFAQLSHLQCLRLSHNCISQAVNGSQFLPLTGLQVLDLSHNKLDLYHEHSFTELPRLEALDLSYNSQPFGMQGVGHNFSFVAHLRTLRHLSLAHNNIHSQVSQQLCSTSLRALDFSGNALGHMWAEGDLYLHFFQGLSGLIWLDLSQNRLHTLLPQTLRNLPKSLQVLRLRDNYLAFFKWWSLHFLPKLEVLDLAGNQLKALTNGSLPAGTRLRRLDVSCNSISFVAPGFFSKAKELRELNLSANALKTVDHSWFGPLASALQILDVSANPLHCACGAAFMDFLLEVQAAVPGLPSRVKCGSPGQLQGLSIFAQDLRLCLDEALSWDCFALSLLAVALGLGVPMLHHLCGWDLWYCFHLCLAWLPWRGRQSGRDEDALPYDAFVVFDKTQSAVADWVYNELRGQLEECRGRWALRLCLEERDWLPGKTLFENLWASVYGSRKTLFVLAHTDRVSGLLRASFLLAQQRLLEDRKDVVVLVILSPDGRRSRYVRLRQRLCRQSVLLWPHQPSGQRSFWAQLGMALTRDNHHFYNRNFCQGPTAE
The assay is described as follows: Antagonist screen, hTLR9-NFκB-293 cells, 6× NF-κB-luciferase reporter, with EC50 of CpG ODN 2006. The class given is cell-based. The settings on record: compound at 0.5, 5, 50 μg/ml; EC50 concentration of CpG ODN 2006; 16 h; NF-κB-luciferase. In outline:
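Luciferase fold induction was compared with the ligand-alone baseline, and antagonism was scored by the lowest concentration giving clear down-regulation.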
Consider `O=C(O)c1cccc2c1/C(=N/O)c1ccccc1-2` [compound 918], for which the “hTLR9 (inhibitory effect, antagonist score)” value is “— (compounds for which there was no clear down regulation even at 50 μg/ml)”.

In the case of `CCCCOC(=O)c1cc([N+](=O)[O-])cc2c1-c1cc(CO)c([NH+]([O-])O)cc1C2=C(C#N)C#N` (centres unmarked) [compound 939], the “hTLR9 (inhibitory effect, antagonist score)” value was 11 (compounds for which there was clear down regulation only at 50 μg/ml).

As for `O=C(O)c1cccc2c1-c1ccccc1/C2=N/Nc1ccc([N+](=O)[O-])cc1[N+](=O)[O-]` [compound 944], the “hTLR9 (inhibitory effect, antagonist score)” value is on record as “— (compounds for which there was no clear down regulation even at 50 μg/ml)”.

`C=CCc1ccccc1OC1(c2ccccc2)OC(=O)c2ccccc21` (centres unmarked) [compound 957]: the “hTLR9 (inhibitory effect, antagonist score)” value is 12 (compounds for which there was clear down regulation at 5 μg/ml and 50 μg/ml).

Take `COC(=O)c1ccc(C2CC(=O)Nc3c2ccc2ccccc32)cc1` (centres unmarked) [compound 965]: the “hTLR9 (inhibitory effect, antagonist score)” value is given as “— (compounds for which there was no clear down regulation even at 50 μg/ml)”.

Consider `O=C(O)c1ccc(C2(c3ccc(C(=O)O)cc3)OC(=O)c3ccccc32)cc1` [compound 970], for which the “hTLR9 (inhibitory effect, antagonist score)” value was 11 (compounds for which there was clear down regulation only at 50 μg/ml).

For `Cc1cc(OC(=O)C2C3CCCCC32)c(C(C)C)cc1C1(c2cc(C(C)C)c(OC(=O)C3C4CCCCC43)cc2C)OC(=O)c2ccccc21` (centres unmarked) [compound 974], the “hTLR9 (inhibitory effect, antagonist score)” value is listed as “— (compounds for which there was no clear down regulation even at 50 μg/ml)”.

Regarding `CCN(CC)CCCN(CC(=O)C1c2ccc(Cl)cc2NC(=O)c2ccccc21)C(=O)c1ccccc1` (centres unmarked) [compound 1013], the “hTLR9 (inhibitory effect, antagonist score)” value is listed as 11 (compounds for which there was clear down regulation only at 50 μg/ml).

For `O=C1c2ccccc2C(=O)c2c1ccc1c(=O)n(C3CCCCC3)[nH]c21` [compound 1015], the “hTLR9 (inhibitory effect, antagonist score)” value is reported as 11 (compounds for which there was clear down regulation only at 50 μg/ml).

As for `CCOC(=O)c1cc([N+](=O)[O-])cc2c1-c1ccc([N+](=O)[O-])cc1C2=C(C#N)C#N` [compound 1039], the “hTLR9 (inhibitory effect, antagonist score)” value was 11 (compounds for which there was clear down regulation only at 50 μg/ml).

Take `O=C1c2ccccc2C(=O)c2c1ccc1c(=O)n(-c3ccccc3)[nH]c21` [compound 1042]: the “hTLR9 (inhibitory effect, antagonist score)” value was 12 (compounds for which there was clear down regulation at 5 μg/ml and 50 μg/ml).

In the case of `O=C(c1cccc2c1-c1ccccc1/C2=N\O)N1CCCCC1` [compound 1050], the “hTLR9 (inhibitory effect, antagonist score)” value is 12 (compounds for which there was clear down regulation at 5 μg/ml and 50 μg/ml).

In the case of `NC(=O)c1cccc2c1-c1ccccc1C2` [compound 1132], the “hTLR9 (inhibitory effect, antagonist score)” value is on record as “— (compounds for which there was no clear down regulation even at 50 μg/ml)”.

For `NC(=O)c1cc(N)c2c(c1N)C(=O)c1ccccc1C2=O` [compound 1158], the “hTLR9 (inhibitory effect, antagonist score)” value is listed as 11 (compounds for which there was clear down regulation only at 50 μg/ml).

With `CC(=O)Oc1cc(C)c(C2(c3cc(C(C)C)c(OC(C)=O)cc3C)OC(=O)c3ccccc32)cc1C(C)C` [compound 1161], the “hTLR9 (inhibitory effect, antagonist score)” value was 12 (compounds for which there was clear down regulation at 5 μg/ml and 50 μg/ml).

For `COC(=O)c1cccc(C(O)(c2ccccc2)c2ccccc2)c1S(=O)(=O)C(C)(C)C` [compound 1187], the “hTLR9 (inhibitory effect, antagonist score)” value was “— (compounds for which there was no clear down regulation even at 50 μg/ml)”.

Regarding `CCOCCOC(=O)c1cc([N+](=O)[O-])cc2c1-c1c(cc([N+](=O)[O-])cc1[N+](=O)[O-])C2=C(C#N)C#N` [compound 1241], the “hTLR9 (inhibitory effect, antagonist score)” value is given as “— (compounds for which there was no clear down regulation even at 50 μg/ml)”.

Regarding `CC1CCN(C(=O)c2cccc3c2-c2ccccc2C3=O)CC1` [compound 1243], the “hTLR9 (inhibitory effect, antagonist score)” value is “— (compounds for which there was no clear down regulation even at 50 μg/ml)”.

In the case of `Cc1cccc(C2(c3cccc(C)c3)OC(=O)c3ccccc32)c1` [compound 1308], the “hTLR9 (inhibitory effect, antagonist score)” value is listed as 11 (compounds for which there was clear down regulation only at 50 μg/ml).

With `COCCCNC(=O)c1ccc2c(c1N)C(=O)c1ccccc1C2=O` [compound 1337], the “hTLR9 (inhibitory effect, antagonist score)” value is 12 (compounds for which there was clear down regulation at 5 μg/ml and 50 μg/ml).

`O=C1Nc2ccccc2Oc2ccc([N+](=O)[O-])cc21` [compound 1352]: the “hTLR9 (inhibitory effect, antagonist score)” value is recorded as 11 (compounds for which there was clear down regulation only at 50 μg/ml).

In the case of Flunarizinehydrochloride [compound 312], the “hTLR9 (inhibitory effect, antagonist score)” value is 12 (compounds for which there was clear down regulation at 5 μg/ml and 50 μg/ml).

On to Maprotilinehydrochloride [compound 346], for which the “hTLR9 (inhibitory effect, antagonist score)” value is recorded as 11 (compounds for which there was clear down regulation only at 50 μg/ml).

Regarding Metixene hydrochloride [compound 491], the “hTLR9 (inhibitory effect, antagonist score)” value is 12 (compounds for which there was clear down regulation at 5 μg/ml and 50 μg/ml).

In the case of “Prochlorperazinedimaleate [compound 399]”, the “hTLR9 (inhibitory effect, antagonist score)” value is 12 (compounds for which there was clear down regulation at 5 μg/ml and 50 μg/ml).

With “Trifluoperazinedihydrochloride [compound 313]”, the “hTLR9 (inhibitory effect, antagonist score)” value is 11 (compounds for which there was clear down regulation only at 50 μg/ml).
